In PubChem BioAssay (NCI):
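Dose response: 5 concentrations. Exposure: 48 h. Format: 96-well plates. Endpoint: linear interpolation; highest concentration if not reached. The concentration for 50% growth inhibition is given as GI50. TGI marks complete inhibition of growth.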

Legend:
Test in all cases: NCI-60 cell line screen, 48 h
[1] = test system: NCI-H226 lung
[2] = test system: HT29 colon
[3] = test system: EKVX NSCLC
[4] = test system: NCI/ADR-RES ovarian
[5] = test system: SR leukemia
[6] = test system: HOP-92 NSCLC
[7] = test system: NCI-H23 lung
[8] = test system: HS 578T breast
[9] = test system: RXF 393 renal
[10] = test system: SK-MEL-5 melanoma
[11] = test system: M14 melanoma
[12] = test system: ACHN renal
[13] = test system: A549 NSCLC
[14] = test system: DU-145 prostate
[15] = test system: SK-MEL-2 melanoma
[16] = test system: TK-10 renal
[17] = test system: MCF7 breast
[18] = test system: SK-OV-3 ovarian
[19] = test system: SF-539 CNS
[20] = test system: UACC-62 melanoma
[21] = test system: SN12C renal
[22] = test system: KM12 colon
[23] = test system: NCI-H460 lung
[24] = test system: SW-620 colon
[25] = test system: HCT-116 colon
[26] = test system: COLO 205 colon
[27] = test system: 786-0 renal
[28] = test system: A498 renal
[29] = test system: OVCAR-3 ovarian
[30] = test system: OVCAR-8 ovarian
[31] = test system: T-47D breast
[32] = test system: UO-31 renal
[33] = test system: MDA-MB-435
[34] = test system: UACC-257 melanoma
[35] = test system: MOLT-4 leukemia
[36] = test system: K-562 leukemia
[37] = test system: HOP-62 NSCLC
[38] = test system: CCRF-CEM leukemia
[39] = test system: RPMI-8226 leukemia
[40] = test system: BT-549 breast
[41] = test system: MDA-MB-231 breast
[42] = test system: IGROV1 ovarian
[43] = test system: PC-3 prostate
[44] = test system: SK-MEL-28 melanoma
[45] = test system: OVCAR-4 ovarian
[46] = test system: SF-295 CNS
[47] = test system: MALME-3M melanoma
[48] = test system: HCT-15 colon
[49] = test system: U251 CNS
[50] = test system: HL-60(TB) leukemia
[51] = test system: NCI-H522 lung
[52] = test system: SNB-75 CNS
[53] = test system: CAKI-1 renal
[54] = test system: SNB-19 CNS
[55] = test system: SF-268 CNS
[56] = test system: HCC-2998 colon
[57] = test system: LOX IMVI melanoma
[58] = test system: OVCAR-5 ovarian

`CC/C(=C/c1ccc(OC)cc1OC)[N+](=O)[O-]` gave a GI50 [1] of 2.28 µM, a TGI [1] of 4.73 µM and a GI50 [2] of 3.37 µM. The TGI [2] was 11.1 µM, the GI50 [3] was 15.4 µM and the TGI [3] was 28.9 µM. The GI50 [4] was 3.17 µM, the TGI [4] was 12.6 µM and the GI50 [5] was 2.61 µM. For the same compound, the TGI [5] was 17 µM, the GI50 [6] was 4.27 µM and the TGI [6] was 14.3 µM. For the same compound, the GI50 [7] was 4.51 µM, the TGI [7] was 20.1 µM and the GI50 [8] was 7.76 µM. It also gave a TGI [8] of 63.4 µM, a GI50 [9] of 1.88 µM and a TGI [9] of 3.57 µM. For the same compound, the GI50 [10] was 4.12 µM, the TGI [10] was 14 µM and the GI50 [11] was 2.44 µM. The TGI [11] was 8.53 µM, the GI50 [12] was 2.14 µM and the TGI [12] was 4.63 µM. It also gave a GI50 [13] of 8.37 µM, a TGI [13] of 23.4 µM and a GI50 [14] of 3.61 µM. The TGI [14] was 13.8 µM, the GI50 [15] was 2.64 µM and the TGI [15] was 8.73 µM. It also gave a GI50 [16] of 2.62 µM, a TGI [16] of 6.5 µM and a GI50 [17] of 0.852 µM. For the same compound, the TGI [17] was 3.92 µM, the GI50 [18] was 16.7 µM and the TGI [18] was 30.4 µM. It also gave a GI50 [19] of 2.27 µM, a TGI [19] of 4.73 µM and a GI50 [20] of 1.73 µM. It also gave a TGI [20] of 3.96 µM, a GI50 [21] of 2.31 µM and a TGI [21] of 6.61 µM. For the same compound, the GI50 [22] was 2.41 µM, the TGI [22] was 6.75 µM and the GI50 [23] was 2.71 µM. It also gave a TGI [23] of 7.56 µM, a GI50 [24] of 2.28 µM and a TGI [24] of 4.93 µM. For the same compound, the GI50 [25] was 1.65 µM, the TGI [25] was 3.23 µM and the GI50 [26] was 2.04 µM. It also gave a TGI [26] of 4.24 µM, a GI50 [27] of 1.77 µM and a TGI [27] of 3.29 µM. It also gave a GI50 [28] of 2.75 µM, a TGI [28] of 10.2 µM and a GI50 [29] of 1.84 µM. It also gave a TGI [29] of 3.38 µM, a GI50 [30] of 3.5 µM and a TGI [30] of 11.6 µM. It also gave a GI50 [31] of 1.72 µM, a TGI [31] of 5.06 µM and a GI50 [32] of 1.57 µM. For the same compound, the TGI [32] was 3.09 µM, the GI50 [33] was 1.97 µM and the TGI [33] was 5.7 µM. For the same compound, the GI50 [34] was 2.31 µM, the TGI [34] was 6.29 µM and the GI50 [35] was 3.73 µM. It also gave a TGI [35] of 35.6 µM, a GI50 [36] of 2.91 µM and a TGI [36] of 61.5 µM. It also gave a GI50 [37] of 2.38 µM, a TGI [37] of 7.14 µM and a GI50 [38] of 2.05 µM. The TGI [38] was 7.01 µM, the GI50 [39] was 2.31 µM and the TGI [39] was 7.19 µM. The GI50 [40] was 4.15 µM, the TGI [40] was 15.3 µM and the GI50 [41] was 3.08 µM. It also gave a TGI [41] of 8.96 µM, a GI50 [42] of 3.4 µM and a TGI [42] of 11.5 µM. For the same compound, the GI50 [43] was 3.84 µM, the TGI [43] was 13.1 µM and the GI50 [44] was 2.51 µM. For the same compound, the TGI [44] was 6.51 µM, the GI50 [45] was 4.66 µM and the TGI [45] was 17.3 µM. It also gave a GI50 [46] of 9.88 µM, a TGI [46] of 21.7 µM and a GI50 [47] of 1.91 µM. The TGI [47] was 4.93 µM, the GI50 [48] was 1.87 µM and the TGI [48] was 4.54 µM. The GI50 [49] was 4.93 µM, the TGI [49] was 16.2 µM and the GI50 [50] was 2.6 µM. For the same compound, the TGI [50] was 7.93 µM, the GI50 [51] was 1.79 µM and the TGI [51] was 3.58 µM. It also gave a GI50 [52] of 3.28 µM, a TGI [52] of 16.6 µM and a GI50 [53] of 2.24 µM. The TGI [53] was 6.55 µM, the GI50 [54] was 4.35 µM and the TGI [54] was 16.6 µM. The GI50 [55] was 3.28 µM, the TGI [55] was 12.7 µM and the GI50 [56] was 4.32 µM. The TGI [56] was 15.8 µM, the GI50 [57] was 1.31 µM and the TGI [57] was 2.9 µM. For the same compound, the GI50 [58] was 7.59 µM and the TGI [58] was 22.2 µM.
